Here are results for nine compounds from DBAASP.

Common to all, as to assay: ≥ marks a high value that may be exact or a test limit, other limits are often not marked, values filed in µg/mL are converted to µM
The subject of experiment [1] is Staphylococcus aureus ATCC 12600.
The subject of experiment [2] is Escherichia coli ATCC 11775.
Experiment [3] deals with Pseudomonas aeruginosa ATCC 27853.
The test system of experiment [4] is Staphylococcus aureus ATCC 29213.
Experiment [5] concerns Staphylococcus aureus ATCC 33591.
In experiment [6] the test system is Escherichia coli ATCC 25922.
Experiment [7] deals with Staphylococcus aureus ATCC 700699.
Experiment [8] relates to Klebsiella pneumoniae ATCC 700603.
In a further experiment the test system is Escherichia coli BW25113.
The subject of experiment [9] is Staphylococcus epidermidis ATCC 12228.
For experiment [10], the system named is Salmonella enterica subsp. enterica serovar Pullorum C79-13.
In experiment [11] the test system is Salmonella enterica subsp. enterica serovar Typhimurium C77-31.
Experiment [12] deals with Enterococcus faecalis ATCC 29212.

Values after ≈ are worked out from the molar mass of the structure shown.

In the case of `CC(C)C[C@H](NC(=O)[C@H](C)NC(=O)[C@H](CC(C)C)NC(=O)[C@@H]1CCCN1C(=O)[C@H](Cc1ccccc1)NC(=O)[C@@H](N)Cc1ccccc1)C(=O)N[C@@H](CC(C)C)C(=O)N[C@H]1CSSC[C@@H](C(=O)O)NC(=O)[C@H](CCCCN)NC(=O)[C@H](CCCCN)NC(=O)[C@H](Cc2ccccc2)NC(=O)[C@H](C(C)C)NC(=O)[C@H](CCCCN)NC1=O` [FFPLALLCKVFKKC], the MIC (in general, the smallest concentration in the dilution series that meets the test's criterion for growth inhibition) in experiment [1] was at least 100 µM; in experiment [2], 25 µM (≈ 41.4 µg/mL).

Consider `CC[C@H](C)[C@H](NC(=O)[C@H](CC(=O)O)NC(=O)[C@H](CCCCN)NC(=O)[C@H](C)NC(=O)[C@H](C)NC(=O)CNC(=O)[C@H](CCCCN)NC(=O)[C@H](CC(C)C)NC(=O)[C@@H](NC(=O)[C@H](CC(=O)O)NC(=O)[C@@H](NC(=O)[C@H](C)NC(=O)CN)C(C)C)[C@@H](C)CC)C(=O)N[C@@H](C)C(=O)NCC(=O)N[C@@H](Cc1cnc[nH]1)C(=O)N[C@@H](CC(C)C)C(=O)N[C@@H](C)C(=O)N[C@@H](CO)C(=O)N[C@@H](CCCCN)C(=O)N[C@H](C(=O)N[C@@H](CCSC)C(=O)N[C@@H](CC(N)=O)C(=O)N[C@@H](CCCCN)C(=O)N[C@@H](CC(C)C)C(N)=O)C(C)C` [GAVDILKGAAKDIAGHLASKVMNKL], for which the MIC in experiment [3] is over 100 µM; in [4] it was over 100 µM; in [5], at least 100 µM; in experiment [6] it was over 100 µM; in experiment [7], at least 100 µM; in experiment [8], over 100 µM.

Turning to `CC[C@H](C)[C@H](NC(=O)[C@H](CC(=O)O)NC(=O)[C@H](CCCCN)NC(=O)[C@H](CC(C)C)NC(=O)[C@H](C)NC(=O)CNC(=O)[C@H](CCCCN)NC(=O)[C@H](CC(C)C)NC(=O)[C@@H](NC(=O)[C@H](CC(=O)O)NC(=O)[C@@H](NC(=O)[C@@H](NC(=O)CN)C(C)C)C(C)C)[C@@H](C)CC)C(=O)N[C@@H](C)C(=O)NCC(=O)N[C@@H](Cc1cnc[nH]1)C(=O)N[C@@H](CC(C)C)C(=O)N[C@@H](C)C(=O)N[C@@H](CO)C(=O)N[C@@H](CCCCN)C(=O)N[C@H](C(=O)N[C@@H](CCSC)C(=O)N[C@@H](CC(N)=O)C(=O)N[C@@H](CCCCN)C(=O)N[C@@H](CC(C)C)C(N)=O)C(C)C` [GVVDILKGALKDIAGHLASKVMNKL], the MIC is 50 µM (≈ 130 µg/mL) in [3]; 100 µM (≈ 259 µg/mL) in experiment [4]; 25 µM (≈ 64.8 µg/mL) in experiment [5]; 12.5 µM (≈ 32.4 µg/mL) in [6]; at least 50 µM in experiment [7]; 50 µM (≈ 130 µg/mL) in experiment [8].

In the case of `CC[C@H](C)[C@H](NC(=O)[C@@H]1CCCN1C(=O)[C@H](CCCN=C(N)N)NC(=O)[C@H](CCCN=C(N)N)NC(=O)[C@H](Cc1ccccc1)NC(=O)[C@@H](N)CCCN=C(N)N)C(=O)N[C@@H](CCCN=C(N)N)C(=O)N[C@@H](CCCN=C(N)N)C(=O)N[C@@H](CCCN=C(N)N)C(=O)N1CCC[C@H]1C(=O)N[C@H](C(=O)N[C@@H](CCCN=C(N)N)C(=O)N1CCC[C@H]1C(=O)N1CCC[C@H]1C(=O)N[C@@H](Cc1ccccc1)C(=O)N[C@@H](Cc1c[nH]c2ccccc12)C(=O)N[C@@H](CCCN=C(N)N)C(=O)O)[C@@H](C)CC` [RFRRPIRRRPIRPPFWR], in the experiment with Escherichia coli BW25113, the MIC was found to be 8 µM (≈ 18.9 µg/mL).

With `NCCCC[C@H](NC(=O)[C@H](Cc1c[nH]c2ccccc12)NC(=O)[C@H](Cc1c[nH]c2ccccc12)NC(=O)[C@H](CCCCN)NC(=O)[C@@H](N)CCCN=C(N)N)C(N)=O` [RKWWK], the MIC was at least 77.8 µM in experiment [1] and over 77.8 µM in experiment [6].

`CC[C@H](C)[C@H](NC(=O)[C@@H]1CCCN1C(=O)[C@H](CCCN=C(N)N)NC(=O)[C@H](CCCN=C(N)N)NC(=O)[C@H](Cc1c[nH]c2ccccc12)NC(=O)[C@@H](N)CCCN=C(N)N)C(=O)N[C@@H](CCCN=C(N)N)C(=O)N[C@@H](CCCN=C(N)N)C(=O)N[C@@H](CCCN=C(N)N)C(=O)N1CCC[C@H]1C(=O)N[C@H](C(=O)N[C@@H](CCCN=C(N)N)C(=O)N1CCC[C@H]1C(=O)N1CCC[C@H]1C(=O)N[C@@H](Cc1ccccc1)C(=O)N[C@@H](Cc1ccc(O)cc1)C(=O)N1CCC[C@H]1C(=O)O)[C@@H](C)CC` [RWRRPIRRRPIRPPFYP] gave an MIC in the experiment with Escherichia coli BW25113 of 8 µM (≈ 18.6 µg/mL).

Compound `CC[C@H](C)[C@H](NC(=O)[C@@H]1CCCN1C(=O)[C@H](Cc1c[nH]c2ccccc12)NC(=O)[C@H](CCCN=C(N)N)NC(=O)[C@H](Cc1c[nH]c2ccccc12)NC(=O)[C@@H](N)CCCN=C(N)N)C(=O)N[C@@H](CCCN=C(N)N)C(=O)N[C@@H](CCCN=C(N)N)C(=O)N[C@@H](CCCN=C(N)N)C(=O)N1CCC[C@H]1C(=O)N[C@H](C(=O)N[C@@H](CCCN=C(N)N)C(=O)N1CCC[C@H]1C(=O)N1CCC[C@H]1C(=O)N[C@@H](Cc1c[nH]c2ccccc12)C(=O)N[C@@H](Cc1ccc(O)cc1)C(=O)N[C@@H](CCCN=C(N)N)C(=O)O)[C@@H](C)CC` [RWRWPIRRRPIRPPWYR] registered an MIC against Escherichia coli BW25113 of 4 µM (≈ 9.79 µg/mL).

On to `NCCCC[C@H](NC(=O)CNC(=O)[C@H](CC(N)=O)NC(=O)[C@H](CCC(=O)O)NC(=O)[C@H](Cc1c[nH]c2ccccc12)NC(=O)[C@H](CCCCN)NC(=O)[C@H](Cc1c[nH]c2ccccc12)NC(=O)[C@H](CCCCN)NC(=O)[C@@H](N)Cc1c[nH]c2ccccc12)C(=O)N[C@@H](Cc1c[nH]c2ccccc12)C(=O)N[C@@H](CCCCN)C(=O)N[C@@H](Cc1c[nH]c2ccccc12)C(=O)N[C@@H](CCCCN)C(=O)N[C@@H](Cc1c[nH]c2ccccc12)C(=O)O` [WKWKWENGKWKWKW], for which the MIC was 32 µM (≈ 66.4 µg/mL) in experiment [9]; 32 µM (≈ 66.4 µg/mL) in experiment [4]; 8 µM (≈ 16.6 µg/mL) in experiment [10]; at least 32 µM in [11]; 64 µM (≈ 133 µg/mL) in experiment [12]; 2 µM (≈ 4.15 µg/mL) in experiment [6].

For the compound `CC[C@H](C)[C@H](NC(=O)[C@H](Cc1ccccc1)NC(=O)[C@H](CS)NC(=O)[C@@H](NC(=O)[C@H](CO)NC(=O)[C@@H](N)Cc1ccc(O)cc1)[C@@H](C)O)C(=O)N[C@@H](CCSC)C(=O)NCC(=O)NCC(=O)NCC(=O)N[C@@H](Cc1c[nH]c2ccccc12)C(=O)N[C@@H](CCCCN)C(=O)N[C@@H](Cc1c[nH]c2ccccc12)C(=O)N[C@@H](CCCCN)C(=O)N[C@@H](Cc1c[nH]c2ccccc12)C(=O)N[C@@H](CCC(=O)O)C(=O)N[C@@H](CC(N)=O)C(=O)NCC(=O)N[C@@H](CCCCN)C(=O)N[C@@H](Cc1c[nH]c2ccccc12)C(=O)N[C@@H](CCCCN)C(=O)N[C@@H](Cc1c[nH]c2ccccc12)C(=O)N[C@@H](CCCCN)C(=O)N[C@@H](Cc1c[nH]c2ccccc12)C(=O)O` [YSTCFIMGGGWKWKWENGKWKWKW], the MIC in experiment [9] was over 128 µM; in [4], over 128 µM; in experiment [10], at least 128 µM; in experiment [11], at least 128 µM; in experiment [12], over 128 µM; in [6], 32 µM (≈ 99 µg/mL).
